pIC50: −log10 of the molar value. Like-named read-outs stand apart in the source and are kept apart here. No end group written: not given here.
Columns and labels:
Assay in all cases: biochemical
Type in all cases: binding
HLA-DR DRB3*0101 (DR52) = HLA-DR DRB3*0101 (DR52) (Homo sapiens, UniProt P01903+P79483)
HLA-DR DRB1*0301 (DR3) = HLA-DR DRB1*0301 (DR3) (Homo sapiens, UniProt P01903+P01911, A100K/A102G/A103R/A169T/F55Y/I96L/K41T/L162R/M171V/P40S/Q125H/Q178H/Q39Y/R42S/S66N/T106N/T262R/W38E/Y61H)
HLA-DR DRB1*0701 (DR7) = HLA-DR DRB1*0701 (DR7) (Homo sapiens, UniProt P01903+P01911, A100R/A102G/A103Q/D57E/D86V/E43K/F76Y/K127E/L162R/M171V/P40G/Q125H/Q99D/R33Q/R42Y/R54Q/S133A/S66F/T210M/V115G/Y107V/Y59L/Y89S)
HLA-DR DRB1*0901 (DR9) = HLA-DR DRB1*0901 (DR9) (Homo sapiens, UniProt P01903+P01911, A100R/A103E/D57H/D86V/F55Y/F60I/F76Y/I96F/K127E/L162R/M171V/P40D/Q125H/Q99R/R33Q/R42F/S133A/S66N/T210M/V115G/W38K/Y107V/Y59G/Y89S); settings: DRB1 *0901
HLA-DR DRB5*0101 (DR51) = HLA-DR DRB5*0101 (DR51) (Homo sapiens, UniProt P01903+Q30154)
HLA-DR DRB1*0401 (DR4) = HLA-DR DRB1*0401 (DR4) (Homo sapiens, UniProt P01903+P01911, A100K/A169T/F76Y/I96L/K127E/L162R/M171V/N62H/P40V/Q125Y/R42H/S133A/S149N/S66Y/V115G/V209L/W38E)
HLA-DR DRB4*0101 (DR53) = HLA-DR DRB4*0101 (DR53) (Homo sapiens, UniProt P01903+P13762, G164S)
HLA-DR DRB1*0405 (DR4) = HLA-DR DRB1*0405 (DR4) (Homo sapiens, UniProt P01903+P01911, A100R/A169T/D86S/F76Y/I96L/K127E/L162R/M171V/N62H/P40V/Q125Y/R42H/S133A/S149N/S66Y/V115G/V209L/W38E)
HLA-DR DRB1*0101 (DR1) = HLA-DR DRB1*0101 (DR1) (Homo sapiens, UniProt P01903+P01911, A100R/D57E/F55L/F60I/F76Y/I96L/L162R/M171V/P40L/Q125E/R42F/V115G/Y59C)
HLA-DR DRB1*1101 (DR11) = HLA-DR DRB1*1101 (DR11) (Homo sapiens, UniProt P01903+P01911, A100R/A169T/A87E/I96F/K41T/L162R/M171V/P40S/Q125H/Q178H/Q39Y/Q99D/R42S/S66Y/T262R/V115G/W38E)
HLA-DR DRB1*1302 (DR13) = HLA-DR DRB1*1302 (DR13) (Homo sapiens, UniProt P01903+P01911, A100E/A169T/K41T/L162R/M171V/P40S/Q125H/Q178H/Q39Y/Q99D/R42S/S66N/T262R/V115G/W38E/Y61H)
HLA-DR DRB1*1501 (DR15) = HLA-DR DRB1*1501 (DR15) (Homo sapiens, UniProt P01903+P01911)
HLA-DR DRB1*0802 (DR8) = HLA-DR DRB1*0802 (DR8) (Homo sapiens, UniProt P01903+P01911, A100R/A103L/A169T/F76Y/H45Y/I96F/K41T/L162R/M171V/P40S/Q125H/Q178H/Q39Y/Q99D/R218S/R42G/S66Y/V115G/W38E)

HLA-DR DRB1*0301 (DR3), sequence (P01903 26-254 limits assumed, other chains not shown): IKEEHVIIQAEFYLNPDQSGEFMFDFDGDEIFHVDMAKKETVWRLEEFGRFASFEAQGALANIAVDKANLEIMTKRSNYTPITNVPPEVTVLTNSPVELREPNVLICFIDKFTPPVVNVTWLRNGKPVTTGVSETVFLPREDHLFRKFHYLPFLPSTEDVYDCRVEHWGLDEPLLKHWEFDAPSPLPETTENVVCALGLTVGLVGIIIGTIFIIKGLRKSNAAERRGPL
HLA-DR DRB1*1302 (DR13), sequence (P01903 26-254 limits assumed, other chains not shown): as above
HLA-DR DRB1*1101 (DR11), sequence (P01903 26-254 limits assumed, other chains not shown): as above

Compound	pIC50 (HLA-DR DRB3*0101 (DR52))	pIC50 (HLA-DR DRB1*0301 (DR3))	pIC50 (HLA-DR DRB1*0701 (DR7); DRB1 *0701)	pIC50 (HLA-DR DRB1*0901 (DR9))	pIC50 (HLA-DR DRB5*0101 (DR51); DRB5 *0101)	pIC50 (HLA-DR DRB1*0401 (DR4); DRB1 *0401)	pIC50 (HLA-DR DRB4*0101 (DR53); DRB4 *0101)	pIC50 (HLA-DR DRB1*0405 (DR4); DRB1 *0405)	pIC50 (HLA-DR DRB1*0101 (DR1); DRB1 *0101)	pIC50 (HLA-DR DRB1*1101 (DR11); DRB1 *1101)	pIC50 (HLA-DR DRB1*1302 (DR13); DRBI *1302)	pIC50 (HLA-DR DRB1*1501 (DR15); DRBI *1501)	pIC50 (HLA-DR DRB1*0802 (DR8))	other results
APPRLITDSRVLERY	6.15	7.82	6.20	5.08	6.16	5.18	5.65	5.11	4.99	5.56	7.04			
VGGVYLLPARGPRLGV	4.74	4.17												pIC50 (HLA-DR DRB1*1501 (DR15)): 8.19; pIC50 (HLA-DR DRB1*0701 (DR7)): 7.31; pIC50 (HLA-DR DRB5*0101 (DR51)): 7.40; pIC50 (HLA-DR DRB4*0101 (DR53)): 4.72; pIC50 (HLA-DR DRB1*0405 (DR4)): 5.34; pIC50 (HLA-DR DRB1*0101 (DR1)): 7.92; pIC50 (HLA-DR DRB1*1101 (DR11)): 6.16; pIC50 (HLA-DR DRB1*1302 (DR13)): 6.70
ELVSEFSRMARDPQ	4.80		4.67	4.04		6.92	6.01	4.82	6.70	5.34	< 4.15	5.10		
FLRSVFANSLVYGAS	3.80		7.80	4.82	6.85	8.17		7.23	8.37	6.01	8.25	7.89	4.87	
RSSNCQSQKLLWQLN	4.16	4.24				6.23	7.57	5.40	5.69	< 4.22	5.71	5.53	5.16	
LGFLQRSSNCQSQKL	< 2.76	5.31	6.52		6.29	8.09	6.91	6.64		6.22	6.88		6.39	
EMLQNIFAIFRQDSS	6.14	5.02	5.48	5.01	5.50	6.16	6.79	6.34	6.40	4.43	7.21	5.76		
RTITADTFRKLFRVY	6.17				7.03	5.98	5.81	5.71	6.83		7.02	7.46	6.10	
CC[C@H](C)[C@H](NC(=O)CNC(=O)[C@H](CC(C)C)NC(=O)[C@H](CC(C)C)NC(=O)[C@H](CCCNC(=N)N)NC(=O)[C@H](CO)NC(=O)[C@@H](NC(=O)[C@H](Cc1ccc(O)cc1)NC(=O)[C@@H]1CCCN1C(=O)[C@H](CO)NC(=O)CNC(=O)[C@@H](NC(=O)CN)C(C)C)C(C)C)C(=O)N[C@@H](CS)C(=O)N[C@@H](CC(C)C)C(=O)O	3.83	3.77	6.72	5.58		5.80		5.38	7.72	6.16	6.02	7.34		
YGAVVNLRKTVVNFP	4.29	3.82	5.08		7.44	5.38	6.52	< 4.02	4.87	7.05	4.95	6.33		
VGGVYLAPRRGPRLGV	< 4.18	3.69												pIC50 (HLA-DR DRB1*1501 (DR15)): 7.26; pIC50 (HLA-DR DRB1*0701 (DR7)): 6.06; pIC50 (HLA-DR DRB5*0101 (DR51)): 7.12; pIC50 (HLA-DR DRB1*0401 (DR4)): 4.47; pIC50 (HLA-DR DRB4*0101 (DR53)): < 4.38; pIC50 (HLA-DR DRB1*0405 (DR4)): < 4.91; pIC50 (HLA-DR DRB1*0101 (DR1)): 6.13; pIC50 (HLA-DR DRB1*1101 (DR11)): 7.46; pIC50 (HLA-DR DRB1*1302 (DR13)): < 4.81
HIEFTPTRTDTYACRV	< 5.15				≤ 3.70	4.52		5.00		≤ 3.70			< 4.90	
RTGQIFKQTYSKFDT	4.83	4.69	7.34		7.19	5.77	6.70	7.40	5.81	5.16	7.18	6.81	4.78	
YLVCGERGFFYTDKT	6.21	4.93	4.03		< 4.55	< 4.69	4.32	< 4.52		< 4.22	5.99	< 4.59	< 4.26	
LYFVKVDVTGAYDTI	7.80	8.02	5.23		5.30	8.55	7.66	7.85	7.80	6.66	7.10	5.01	6.38	
RPIVNMDYVVGARTFRREKR	5.48	7.66	6.46		8.18	8.51	6.80	6.09	7.54		7.14	7.37	6.13	
HYLKAKEDSHTAWTI	4.45	4.15	6.10	4.99	4.71	6.26	4.93	4.82	6.63	< 4.22	5.65	6.28		
SFLQNPQTSLTFSES	6.06	5.62	5.21			5.11		5.02		< 4.81	6.92	5.82	< 4.48	
YLVTGERGFFYTDKT	6.44			5.54	< 4.55	< 4.69	4.51	< 4.52	5.49	4.77	4.76	< 4.59	< 4.59	
SNLELLRICLLLIQS	4.77	4.21	5.91		< 4.93		6.79	5.95		< 4.81	6.11	7.05	4.70	
LFFYRKSVWSKLQSI	5.23	4.52	7.08		7.74	6.04	5.71	7.08	7.72	7.92	6.92	7.70	7.19	
QTQKLLWQLNGRLEY	5.18	5.45	5.51			7.26	7.06	7.07	7.49	4.68	6.92	7.70	5.69	
FTRGKRMSSLHLKRY	4.73	5.48			7.08	5.99	5.69	6.32	7.89	7.09	4.99		6.26	

Source: US20060079453A1, “Hla binding peptides and their uses” (priority 2002, published 2006)
